These results are taken from US20250346585A1 (Alexion Pharmaceuticals, Inc., priority 2022, published 2025).

Structures are written as SMILES.

For this test, the target named is Human complement C1s enzyme (Homo sapiens (Human), UniProt P09871). The experiment in a line: Human C1s enzyme assay. It counts as biochemical. Particulars: Human C1s enzyme assay of Example 3; read-out: IC50 (Stars). In outline: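 IC50 derived by nonlinear regression of rate versus concentration, with rate taken from A405 kinetics (30 s intervals, 30 min) after adding 100 μM each Z-L-Lys-SBzl and DTNB. C1s from human serum, 1.16 nM, exposed to compound for 5 min at RT beforehand; buffer 50 mM Tris, 1 M NaCl, pH 7.5.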
Sequence of Human complement C1s enzyme (P09871 438-688 limits assumed): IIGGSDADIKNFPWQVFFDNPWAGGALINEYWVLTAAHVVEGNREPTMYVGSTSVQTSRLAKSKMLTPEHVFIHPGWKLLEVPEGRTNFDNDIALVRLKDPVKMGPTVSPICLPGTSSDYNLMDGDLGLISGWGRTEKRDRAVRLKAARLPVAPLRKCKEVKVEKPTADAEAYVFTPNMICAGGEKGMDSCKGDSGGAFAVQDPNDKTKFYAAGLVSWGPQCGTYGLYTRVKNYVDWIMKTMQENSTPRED
Sequence of Human complement C1s enzyme (P09871 16-437 partner limits assumed): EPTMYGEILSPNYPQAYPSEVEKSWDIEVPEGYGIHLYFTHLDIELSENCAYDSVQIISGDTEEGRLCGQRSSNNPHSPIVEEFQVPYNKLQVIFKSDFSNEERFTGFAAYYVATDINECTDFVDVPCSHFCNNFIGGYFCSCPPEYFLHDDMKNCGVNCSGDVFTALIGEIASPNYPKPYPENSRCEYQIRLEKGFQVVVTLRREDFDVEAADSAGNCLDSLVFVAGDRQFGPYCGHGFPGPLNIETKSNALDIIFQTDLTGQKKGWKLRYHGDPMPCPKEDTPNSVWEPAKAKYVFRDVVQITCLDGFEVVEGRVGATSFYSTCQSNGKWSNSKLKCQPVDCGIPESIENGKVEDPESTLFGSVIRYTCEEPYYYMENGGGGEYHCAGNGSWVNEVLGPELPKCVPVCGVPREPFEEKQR
For the compound `N=C(N)c1csc(CNC(=O)[C@@H]2CC3(CN2C(=O)CNC(=O)c2ncc(-c4ccccc4)cc2F)OCCO3)c1` [Compound 105, (S)—N-((4-carbamimidoylthiophen-2-yl)methyl)-7-((3-fluoro-5-phenylpicolinoyl)glycyl)-1,4-dioxa-7-azaspiro[4.4]nonane-8-carboxamide], the IC50 (as a rule, the point on the concentration scale where inhibition reaches its midpoint) was less than 100 nM.

Consider `C[C@@H](NC(=O)[C@@H]1C[C@](F)(COCCNC(=O)CC[C@H](NC(=O)CCCCCCCCCCCCCCCCC(=O)O)C(=O)O)CN1C(=O)CNC(=O)c1ccc(Oc2ccc(F)cc2)cc1)c1cc(C(=N)N)cs1` [Compound 106, 18-(((S)-4-((2-(((3R,5S)-5-(((R)-1-(4-carbamimidoylthiophen-2-yl)ethyl)carbamoyl)-3-fluoro-1-((4-(4-fluorophenoxy)benzoyl)glycyl)pyrrolidin-3-yl)methoxy)ethyl)amino)-1-carboxy-4-oxobutyl)amino)-18-oxooctadecanoic acid], for which the IC50 was less than 100 nM.

For the compound `N=C(N)c1csc(CNC(=O)[C@@H]2CC3(CN2C(=O)CNC(=O)c2ccc(-c4ccc(F)cc4F)cc2)OCCO3)c1` [Compound 107, (S)—N-((4-carbamimidoylthiophen-2-yl)methyl)-7-((2′,4′-difluoro-[1,1′-biphenyl]-4-carbonyl)glycyl)-1,4-dioxa-7-azaspiro[4.4]nonane-8-carboxamide], the IC50 is less than 100 nM.

`Cc1ccc(-c2ccc(C(=O)NCC(=O)N3CC4(C[C@H]3C(=O)NCc3cc(C(=N)N)cs3)OCCO4)cc2)cc1` [Compound 108, (S)—N-((4-carbamimidoylthiophen-2-yl)methyl)-7-((4′-methyl-[1,1′-biphenyl]-4-carbonyl)glycyl)-1,4-dioxa-7-azaspiro[4.4]nonane-8-carboxamide]: the IC50 is less than 100 nM.

For `C[C@@H](NC(=O)[C@@H]1CC2(CN1C(=O)CNC(=O)c1cccc(-c3ccccc3)c1)OCCO2)c1cc(C(=N)N)cs1` [Compound 109, (S)-7-(([1,1′-biphenyl]-3-carbonyl)glycyl)-N—((R)-1-(4-carbamimidoylthiophen-2-yl)ethyl)-1,4-dioxa-7-azaspiro[4.4]nonane-8-carboxamide], the IC50 was less than 100 nM.

On to `CC1c2ccccc2-c2cc(C(=O)NCC(=O)N3CC4(C[C@H]3C(=O)NCc3cc(C(=N)N)cs3)OCCO4)ccc21` (stereo partly drawn) [Compound 110, (8S)—N-((4-carbamimidoylthiophen-2-yl)methyl)-7-((9-methyl-9H-fluorene-3-carbonyl)glycyl)-1,4-dioxa-7-azaspiro[4.4]nonane-8-carboxamide], for which the IC50 was less than 100 nM.

Take `C[C@@H](NC(=O)[C@@H]1CC2(CN1C(=O)CNC(=O)c1ccc3c(c1)-c1ccccc1C3)OCCO2)c1cc(C(=N)N)cs1` [Compound 111, (S)-7-((9H-fluorene-3-carbonyl)glycyl)-N—((R)-1-(4-carbamimidoylthiophen-2-yl)ethyl)-1,4-dioxa-7-azaspiro[4.4]nonane-8-carboxamide]: the IC50 is less than 100 nM.

With `C[C@@H](NC(=O)[C@@H]1CC2(CN1C(=O)CNC(=O)c1cccc(-c3ccc(F)cc3)c1)OCCO2)c1cc(C(=N)N)cs1` [Compound 112, (S)—N—((R)-1-(4-carbamimidoylthiophen-2-yl)ethyl)-7-((4′-fluoro-[1,1′-biphenyl]-3-carbonyl)glycyl)-1,4-dioxa-7-azaspiro[4.4]nonane-8-carboxamide], the IC50 was less than 100 nM.

For the compound `C[C@@H](NC(=O)[C@@H]1CC2(CN1C(=O)CNC(=O)c1ccc3c(c1)-c1ccccc1C3(F)F)OCCO2)c1cc(-c2ncco2)cs1` [Compound 113, (S)-7-((9,9-difluoro-9H-fluorene-3-carbonyl)glycyl)-N—((R)-1-(4-(oxazol-2-yl)thiophen-2-yl)ethyl)-1,4-dioxa-7-azaspiro[4.4]nonane-8-carboxamide], the IC50 is more than 1000 nM.

Regarding `C[C@@H](NC(=O)[C@@H]1CC2(CN1C(=O)CNC(=O)c1ccc3c(c1)-c1ccccc1C3(F)F)OCCO2)c1cc(-c2nccs2)cs1` [Compound 114, (S)-7-((9,9-difluoro-9H-fluorene-3-carbonyl)glycyl)-N—((R)-1-(4-(thiazol-2-yl)thiophen-2-yl)ethyl)-1,4-dioxa-7-azaspiro[4.4]nonane-8-carboxamide], the IC50 was more than 1000 nM.

As for `Cc1cc(C(=O)NCC(=O)N2CC3(C[C@H]2C(=O)NCc2cc(C(=N)N)cs2)OCCO3)ccc1-c1ccccc1` [Compound 115, (S)—N-((4-carbamimidoylthiophen-2-yl)methyl)-7-((2-methyl-[1,1′-biphenyl]-4-carbonyl)glycyl)-1,4-dioxa-7-azaspiro[4.4]nonane-8-carboxamide], the IC50 was less than 100 nM.

On to `N=C(N)c1csc(CNC(=O)[C@@H]2CC3(CN2C(=O)CNC(=O)c2ccc(-c4ccc(C(F)(F)F)cc4)cc2)OCCO3)c1` [Compound 116, (S)—N-((4-carbamimidoylthiophen-2-yl)methyl)-7-((4′-(trifluoromethyl)-[1,1′-biphenyl]-4-carbonyl)glycyl)-1,4-dioxa-7-azaspiro[4.4]nonane-8-carboxamide], for which the IC50 was less than 100 nM.

`Cc1ccccc1[C@H]1C[C@@H](C(=O)N[C@H](C)c2cc(C(=N)N)cs2)N(C(=O)CNC(=O)c2ccc3c(c2)-c2ccccc2C3(F)F)C1` [Compound 119, (2S,4R)—N—((R)-1-(4-carbamimidoylthiophen-2-yl)ethyl)-1-((9,9-difluoro-9H-fluorene-3-carbonyl)glycyl)-4-(o-tolyl)pyrrolidine-2-carboxamide]: the IC50 was less than 100 nM.

For the compound `Cc1ccc(-c2cccc(C(=O)NCC(=O)N3CC4(C[C@H]3C(=O)N[C@H](C)c3cc(C(=N)N)cs3)OCCO4)c2)cc1` [Compound 120, (S)—N—((R)-1-(4-carbamimidoylthiophen-2-yl)ethyl)-7-((4′-methyl-[1,1′-biphenyl]-3-carbonyl)glycyl)-1,4-dioxa-7-azaspiro[4.4]nonane-8-carboxamide], the IC50 was less than 100 nM.

Turning to `C[C@@H](NC(=O)[C@@H]1C[C@]2(C)C[C@@H]2N1C(=O)CNC(=O)c1ccc2c(c1)C(F)(F)c1ccccc1-2)c1cc(C(=N)N)cs1` [Compound 121, (1S,3S,5S)—N-[(1R)-1-(4-carbamimidoylthiophen-2-yl)ethyl]-2-{2-[(9,9-difluorofluoren-2-yl)formamido]acetyl}-5-methyl-2-azabicyclo[3.1.0]hexane-3-carboxamide], the IC50 is less than 100 nM.

Consider `Nc1ncccc1-c1csc(CNC(=O)[C@@H]2CC3(CN2C(=O)CNC(=O)c2ccc(Oc4ccc(F)cc4)cc2)OCCO3)c1` [Compound 122, (S)—N-((4-(2-aminopyridin-3-yl)thiophen-2-yl)methyl)-7-((4-(4-fluorophenoxy)benzoyl)glycyl)-1,4-dioxa-7-azaspiro[4.4]nonane-8-carboxamide], for which the IC50 was more than 1000 nM.

For the compound `Nc1ccc(-c2csc(CNC(=O)[C@@H]3CC4(CN3C(=O)CNC(=O)c3ccc(Oc5ccc(F)cc5)cc3)OCCO4)c2)cn1` [Compound 123, (S)—N-((4-(6-aminopyridin-3-yl)thiophen-2-yl)methyl)-7-((4-(4-fluorophenoxy)benzoyl)glycyl)-1,4-dioxa-7-azaspiro[4.4]nonane-8-carboxamide], the IC50 was more than 1000 nM.

In the case of `O=C(NCC(=O)N1CC2(C[C@H]1C(=O)NCc1cccs1)OCCO2)c1ccc(Oc2ccc(F)cc2)cc1` [Compound 124, (S)-7-((4-(4-fluorophenoxy)benzoyl)glycyl)-N-(thiophen-2-ylmethyl)-1,4-dioxa-7-azaspiro [4.4]nonane-8-carboxamide], the IC50 was more than 1000 nM.

As to `CC(=O)ONC(=N)c1csc([C@@H](C)NC(=O)[C@@H]2CC3(CN2C(=O)CNC(=O)c2ccc4c(c2)-c2ccccc2C4(F)F)OCCO3)c1` [Compound 125, (S)—N—((R)-1-(4-(N-acetoxycarbamimidoyl)thiophen-2-yl)ethyl)-7-((9,9-difluoro-9H-fluorene-3-carbonyl)glycyl)-1,4-dioxa-7-azaspiro[4.4]nonane-8-carboxamide], the IC50 was less than 100 nM.

As to `Cc1ccc(-c2ccc(C(=O)NCC(=O)N3CC4(C[C@H]3C(=O)N[C@H](C)c3cc(C(=N)N)cs3)OCCO4)cc2)cc1` [Compound 126, (S)—N—((R)-1-(4-carbamimidoylthiophen-2-yl)ethyl)-7-((4′-methyl-[1,1′-biphenyl]-4-carbonyl)glycyl)-1,4-dioxa-7-azaspiro[4.4]nonane-8-carboxamide], the IC50 is less than 100 nM.

Turning to `C[C@@H](NC(=O)[C@@H]1CC2(CN1C(=O)CNC(=O)c1ccc3c(c1)-c1ccccc1C3F)OCCO2)c1cc(C(=N)N)cs1` (stereo partly drawn) [Compound 127, (8S)—N—((R)-1-(4-carbamimidoylthiophen-2-yl)ethyl)-7-((9-fluoro-9H-fluorene-3-carbonyl)glycyl)-1,4-dioxa-7-azaspiro[4.4]nonane-8-carboxamide], the IC50 is less than 100 nM.

As to `C[C@@H](NC(=O)[C@@H]1CC2(CN1C(=O)CNC(=O)c1ccc3c(c1)-c1ccccc1C3(F)F)OCCO2)c1cc(C(=N)NO)cs1` [Compound 128, (S)-7-((9,9-difluoro-9H-fluorene-3-carbonyl)glycyl)-N—((R)-1-(4-(N-hydroxycarbamimidoyl)thiophen-2-yl)ethyl)-1,4-dioxa-7-azaspiro[4.4]nonane-8-carboxamide], the IC50 is less than 100 nM.

Regarding `C[C@@H](NC(=O)[C@@H]1CC2(CN1C(=O)CNC(=O)c1ccc3c(c1)-c1ccccc1C3(F)F)OCCO2)c1cc(-c2cocn2)cs1` [Compound 129, (8S)-7-{2-[(9,9-difluorofluoren-3-yl)formamido]acetyl}-N-[(1R)-1-[4-(1,3-oxazol-4-yl)thiophen-2-yl]ethyl]-1,4-dioxa-7-azaspiro[4.4]nonane-8-carboxamide], the 50% inhibitory concentration (IC50) is more than 1000 nM.

Take `C[C@@H](NC(=O)[C@@H]1CC2(CN1C(=O)CNC(=O)c1ccc3c(c1)-c1ccccc1C3(F)F)OCCO2)c1cc(-c2nnc[nH]2)cs1` [Compound 130, (S)—N—((R)-1-(4-(4H-1,2,4-triazol-3-yl)thiophen-2-yl)ethyl)-7-((9,9-difluoro-9H-fluorene-3-carbonyl)glycyl)-1,4-dioxa-7-azaspiro[4.4]nonane-8-carboxamide]: the IC50 lay within 100 to 1000 nM.
